Data on seven molecules can be found in patent publication US6384261B1, “Phosphoramidates, phosphinic amides and related compounds and the use thereof to modulate the activity of endothelin” (Texas Biotechnology Corporation, priority 1996, dated 2002).

Read-outs that look alike come from different tables or passages of the source. Where only a bound is given, the exact number is not on record here.

The target in one assay is T1, human ETB receptor (Homo sapiens, UniProt P24530).
T1 construct: expressed in transfected cells; host or cells: COS7 cells, membrane preparation
T1 sequence (P24530 27-442): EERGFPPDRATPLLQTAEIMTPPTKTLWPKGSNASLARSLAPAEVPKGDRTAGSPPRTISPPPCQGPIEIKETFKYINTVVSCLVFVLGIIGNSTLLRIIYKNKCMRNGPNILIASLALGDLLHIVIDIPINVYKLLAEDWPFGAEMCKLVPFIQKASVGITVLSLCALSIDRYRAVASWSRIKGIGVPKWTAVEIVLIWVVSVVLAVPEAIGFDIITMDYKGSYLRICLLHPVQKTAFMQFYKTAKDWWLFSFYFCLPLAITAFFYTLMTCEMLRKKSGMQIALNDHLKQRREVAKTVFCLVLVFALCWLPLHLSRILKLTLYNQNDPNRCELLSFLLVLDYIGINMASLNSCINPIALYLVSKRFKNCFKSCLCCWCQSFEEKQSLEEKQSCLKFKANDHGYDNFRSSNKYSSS
Briefly: Binding Test #2: inhibition of 125I-endothelin-1 binding to ETB receptors (transfected COS7 cell membranes). From the text: (§1) Compounds that are potential endothelin antagonists are identified by testing their ability to compete with ^125I-labeled ET-1 for binding to human ETA receptors or ETB receptors present on isolated cell membranes. The effectiveness of the test compound as an antagonist or agonist of the biological tissue response of endothelin can also be assessed by measuring the effect on endothelin induced contraction of isolated rat thoracic aortic rings. The ability of the compounds to act as antagonists or agonists for ETB receptors can be assessed by testing the ability of the compounds to inhibit endothelin-1 induced prostacyclin release from cultured bovine aortic endothelial cells.
COS7 cells were transfected with DNA encoding the ETB receptor, The resulting cells, which express the human ETB receptor, were grown to confluence in T-150 flasks. Membrane was prepared as described above. The binding assay was performed as described above using the membrane preparation diluted with binding buffer to a concentration of 1 μg/50 μl.
Briefly, the COS7 cells, described above, that had been transfected with DNA encoding the ETB receptor and express the human ETB receptor on their surfaces were grown to confluence in T-175 flasks. Cells from multiple flasks were collected by scraping, pooled and centrifuged for 10 min at 190×g. The cells were resuspended in phosphate buffered saline (PBS) containing 10 mM EDTA using a Tenbroeck homogenizer. The suspension was centrifuged at 4° C. 57,800×g for 15 min, the pellet was resuspended in 5 ml of buffer A (5 mM HEPES buffer, pH 7.4 containing aprotinin (100 KIU/ml)) and then frozen and thawed once. Five ml of Buffer B (5 mM HEPES Buffer, pH 7.4 containing 10 mM MnCl2 and 0.001% deoxyribonuclease Type 1) was added, the suspension mixed by inversion and then incubated at 37° C. for 30 minutes. The mixture was centrifuged at 57,800×g as described above, the pellet washed twice with buffer A and then resuspended in buffer C (30 mM HEPES buffer, pH 7.4 containing aprotinin (100 KIU/ml) to give a final protein concentration of 2 mg/ml.
The binding assay was performed as described above using the membrane preparation diluted to give 1 μg/50 μl of binding buffer.

The next assay has as its target T2, human ETA receptors (Homo sapiens, UniProt P25101).
T2 construct: endogenous in cells; host or cells: TE 671 cells (ATCC HTB 139), membrane preparation
T2 sequence (P25101 21-427): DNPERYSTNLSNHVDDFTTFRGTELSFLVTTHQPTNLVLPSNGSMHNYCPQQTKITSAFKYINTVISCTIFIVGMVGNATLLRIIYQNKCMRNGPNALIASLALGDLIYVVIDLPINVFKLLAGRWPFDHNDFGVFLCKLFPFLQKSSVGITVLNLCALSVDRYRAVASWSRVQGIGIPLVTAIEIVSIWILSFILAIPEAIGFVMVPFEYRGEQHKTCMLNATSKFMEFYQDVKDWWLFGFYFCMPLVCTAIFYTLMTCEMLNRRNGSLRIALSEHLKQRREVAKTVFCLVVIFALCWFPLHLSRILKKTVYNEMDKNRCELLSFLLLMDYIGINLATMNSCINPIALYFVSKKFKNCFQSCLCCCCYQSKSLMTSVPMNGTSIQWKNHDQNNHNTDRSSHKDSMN
Nature of the assay: Binding Test #1: inhibition of 125I-endothelin-1 binding to ETA receptors (TE 671 cell membranes).
Description: as §1
TE 671 cells (ATCC Accession No. HTB 139) express ETA receptors. These cells were grown to confluence in T-175 flasks. Cells from multiple flasks were collected by scraping, pooled and centrifuged for 10 min at 190×g. The cells were resuspended in phosphate buffered saline (PBS) containing 10 mM EDTA using a Tenbroeck homogenizer. The suspension was centrifuged at 4° C. at 57,800×g for 15 min, the pellet was resuspended in 5 ml of buffer A (5 mM HEPES buffer, pH 7.4 containing aprotinin (100 KIU/ml)) and then frozen and thawed once. 5 ml of Buffer B (5 mM HEPES Buffer, pH 7.4 containing 10 mM MnCl2 and 0.001% deoxyribonuclease Type 1) was added, the suspension mixed by inversion and then incubated at 37° C. for 30 minutes. The mixture was centrifuged at 57,800×g as described above, the pellet washed twice with buffer A and then resuspended in buffer C (30 mM HEPES buffer, pH 7.4 containing aprotinin (100 KIU/ml) to give a final protein concentration of 2 mg/ml and stored at −70° C. until use.
The membrane suspension was diluted with binding buffer (30 mM HEPES buffer, pH 7.4 containing 150 mM NaCl, 5 mM MgCl2, 0.5% Bacitracin) to a concentration of 8 μg/50 μl. ^125I-endothelin-1 (3,000 cpm, […]) was added to 50 μL of either: (A) endothelin-1 (for non specific binding) to give a final concentration 80 nM); (B) binding buffer for total binding); or (C) a test compound (final concentration 1 nM to 100 μM). The membrane suspension (50 μL), containing up to 8 μg of membrane protein, was added to each of (A), (B), or (C). Mixtures were shaken, and incubated at 4° C. for 16-18 hours, and then centrifuged at 4° C. for 25 min at 2,500×g. Alternatively, the incubation can be conducted at other temperatures, such as 24° C. When incubated at 24° C., the IC50 concentrations are 2- to 10-fold higher than when the incubation is conducted at 4° C.
The supernatant, containing unbound radioactivity, was decanted and the pellet counted on a Genesys multiwell gamma counter. The degree of inhibition of binding (D) was calculated according to the following equation: [formula]
Each test was generally performed in triplicate.

For the next assay, the system named is ETA and ETB receptors. Briefly: Summary statements on IC50 for ETA and ETB receptors / endothelin antagonist activity. Type of assay: binding, human. The note with it: ETA versus ETB.
Description: as §1
The membrane suspension was diluted with binding buffer (30 mM HEPES buffer, pH 7.4 containing 150 mM NaCl, 5 mM MgCl2, 0.5% Bacitracin) to a concentration of 8 μg/50 μl. ^125I-endothelin-1 (3,000 cpm, […]) was added to 50 μL of either: (A) endothelin-1 (for non specific binding) to give a final concentration 80 nM); (B) binding buffer for total binding); or (C) a test compound (final concentration 1 nM to 100 μM). The membrane suspension (50 μL), containing up to 8 μg of membrane protein, was added to each of (A), (B), or (C). […]
The IC50 for each of the compounds of the preceding Examples for ETA and ETB receptors has been measured. […]

For a further assay, the system named is ETB receptors. To be noted: concentrations up to 100 μM; cited from earlier work.
In a further assay the target is ETA receptor. The note with it: read-out: IC50, inhibition of 125I-labelled endothelin-1 binding, cited from earlier work.
For another assay, the system named is isolated vascular strips. To be noted: read-out: EC50, contractile agent; cited from earlier work.
[1] abbreviates: incubation at 4° C., results generally from 1, 2, or 3 experiments, read-out: ETB (μM) IC50.
[2] abbreviates: incubation at 4° C., results generally from 1, 2, or 3 experiments, read-out: ETA (μM) IC50.

With `Cc1noc(NP(=O)(c2ccccc2)c2ccccc2)c1C` [N-(3,4-dimethyl-5-isoxazolyl)diphenylphosphinic Amide], the IC50 – broadly, the concentration that inhibits the measured activity by half – at human ETB receptor (setting [1]) was above 100 µM; at human ETA receptors (setting [2]) it was 7.1 µM.
Turning to `Cc1noc(NP(=O)(Oc2ccccc2)Oc2ccccc2)c1C` [N-(3,4-dimethyl-5-isoxazolyl)diphenylphosphoramidate], the 50% inhibitory concentration (IC50) at human ETB receptor is above 100 µM; at human ETA receptors it was 2.5 µM.
Taken in the same sequence, the figures for `CCOP(=O)(Nc1onc(C)c1Br)OCC` [N-(4-bromo-3-methyl-5-isoxazolyl)diethylphosphoramidate] were above 100 µM and 20 µM.
Turning to `Cc1noc(NP(=O)(c2ccccc2)c2ccccc2)c1Br` [N-(4-bromo-3-methyl-5-isoxazolyl)diphenylphosphinic Amide], the IC50 at human ETB receptor (setting [1]) was found to be 85 µM; at human ETA receptors (setting [2]), 0.84 µM.
Consider `Cc1noc(NP(=O)(Oc2ccccc2)Oc2ccccc2)c1Br` [N-(4-bromo-3-methyl-5-isoxazolyl)diphenylphosphoramidate], for which the “IC50 for ETA receptors substantially less than for ETB receptors (selectivity)” value in the assay on ETA and ETB receptors is listed as 10 to 100 fold. For the same molecule, the 50% inhibitory concentration (IC50) at human ETB receptor was determined as 77 µM; on human ETA receptors, 0.58 µM.
Regarding “cyclo(D-Glu-L-Ala-allo-D-lle-L-Leu-D-Trp) [BE-18257B]”, in the assay on ETB receptors, the “inhibition of binding to receptors in tissues in which ETB receptors predominate” value is “fails to inhibit binding”. In addition, the IC50 on ETA receptor (aortic smooth muscle) was 1400 nM; at ETA receptor (cultured aortic smooth muscle cells) it was 500 nM; on ETA receptor (ventricle membranes) it was 800 nM.
Turning to “endothelin-1: potent twenty-one amino acid peptide vasoconstrictor”, in the assay with isolated vascular strips, the EC50 (as a rule, the midpoint of the concentration-response curve) was 0.4 nM.
